Laboratory results published in patent US6767561B2, “DNA polymerase inhibitors, mikanolide and dihydromikanolide” (Societe de Conseils de Recherches et d'Applications …, priority 1999, dated 2004).

Key:
[1] = system: Mia-Paca2 human tumor cells; experiment: Cell proliferation test (WST1), Mia-PaCa2; assay type: cell-based; details: Mia-Paca2, 96 hours treatment, read-out: Inhibitory concentration IC50
Experimental: (§1) The cell lines DU145 (human prostate cancer cells), HT29 (cancer of the colon) and Mia-PaCa2 (human pancreatic cancer cells) were acquired from the American Tissue Culture Collection (Rockville, Md., USA).
(§2) The cells placed in 80 μl of Dulbecco's modified Eagle medium (Gibco-Brl, Cergy-Pontoise, France) completed with 10% foetal calf serum inactivated by heating (Gibco-Brl, Cergy-Pontoise, France), 50000 units/l of penicillin and 50 mg/l streptomycin (Gibco-Brl, Cergy-Pontoise, France), and 2 mM of glutamine (Gibco-Brl, Cergy-Pontoise, France) were seeded on a 96-well plate on day 0. The cells were treated on day 1 for 96 hours with increasing concentrations of each of the compounds to be tested at 50 μg/ml. At the end of this period, quantification of cell proliferation is evaluated by a colorimetric test based on the cleavage of the tetrazolium salt WST1 by mitochondrial dehydrogenases in viable cells leading to the formation of formazan (Boehringer Mannheim, Meylan, France). These tests are carried out in duplicate with 8 determinations per concentration tested. For each compound to be tested, the values included in the linear part of the sigmoid were retained for linear regression analysis and used to estimate the inhibitory concentration IC50. The products are solubilized in dimethylsulphoxide (DMSO) at 10^−2 M and finally used in culture with 0.5% DMSO.

DU145 human tumor cells = experiment: Cell proliferation test (WST1), DU145; assay type: cell-based; details: DU-145, 96 hours treatment, read-out: Inhibitory concentration IC50
Experimental: as §1, §2

[2] = system: Klenow DNA polymerase enzyme without exonuclease; experiment: Incorporation of cytosine labelled with 32P into a DNA in the presence of DNA polymerase in an acellular system; assay type: biochemical; details: 100 μg/ml, [32P]dCTP incorporation vs control
Experimental: Incorporation of Cytosine Labelled With ^32P into a DNA in the Presence of DNA Polymerase in an Acellular System
Labelling of the DNA is carried out on a DNA fragment which incorporates nucleotides by way of the activity of the DNA polymerase enzyme. From these nucleotides, the dCTP is labelled by radioactive phosphorus (^32P).
Plasmidic DNA (pc DNA 3, invitrogen, Netherlands) is diluted to a concentration of 2 ng in 45 μl of TE solution (10 MM Tris-HCl; pH 8.0; 1 mM EDTA) then denatured by heating at 100° C. for 10 minutes before being replaced directly in ice. The denatured DNA is placed in the tube which contains the buffer solution of dATP, dGTP, dTTP, the Klenow DNA polymerase enzyme without exonuclease and the random primers (Rediprime II random prime labelling system, RPN 1633, RPN 1634, Amersham pharmacia biotech). 2 μl of Redivue [^32P]dCTP ([…] 5′(α-^32P), specific activity 250 μCi, Amersham), is added to start the reaction. The reaction is carried out in the presence or absence of the compound to be tested for 10 minutes at 37° C. or 1 hour at ambient temperature. […] 10 μl is counted into 5 ml of scintillor (Instagel® plus and Packard scintillation counter). The results are expressed as a percentage of the inhibition of incorporation of the labelled nucleotide in the sample with respect to the control (100−(DPM of the sample/DPM control)*100).

HT29 cells = experiment: Incorporation of tritiated thymidine into the DNA of HT29 cells in exponential growth phase (in vitro); assay type: cell-based, human; details: 1 hour treatment
Experimental: as §1
Incorporation of Thymidine Labelled With Tritium into DNA Cells in Exponential Growth Phase (in vitro)
HT29 cells are seeded in 96-well plates (culturPlate-96, Packard; 4000 cells per well) with the medium (DMEM, Gibco BRL complemented with 10% foetal calf serum, Gibco BRL). On day 3, the medium is removed and replaced by medium containing the tritiated thymidine (5′-thymidine TRK.328, 1 mCi, 0.6 μCi/wells, Amersham) with or without the products (range of 100 to 0.19 μg/ml per ½ dilutions). The treatments are carried out for 1 hour. The medium is then removed and the cells are washed twice with 200 μl of PBS (Gibco BRL). The lysis solution (SDS 1.25%; EDTA 5 mM) is added and left for 10 minutes at ambient temperature, then 75 μl of scintillating liquid (microscint® 40, Packard) is added. Reading is carried out using Topcount® (Packard). The results are expressed as a percentage of the inhibition of incorporation of the labelled nucleotide in the sample with respect to the control (100−(DPM of the sample/DPM control)*100).

Structure (SMILES): C=C1C(=O)O[C@H]2C[C@]3(C)O[C@H]3[C@@H]3O[C@@H]3C3=C[C@@H](OC3=O)[C@H]12 [Mikanolide, mikanolide]
- IC50 [1]: 3 µM
- IC50 (DU145 human tumor cells): 15 µM
- Inhibition of incorporation (%) [2]: 79.6 (n = 3; standard deviation σ = 11.0) %
- Remaining thymidine incorporation (dpm sample/dpm control) (HT29 cells; 25 μg/ml): 1.04
- Remaining thymidine incorporation (dpm sample/dpm control) (HT29 cells; 50 μg/ml): 0.61
- Remaining thymidine incorporation (dpm sample/dpm control) (HT29 cells; 100 μg/ml): 0.53

Structure (SMILES): C[C@H]1C(=O)O[C@H]2C[C@]3(C)O[C@H]3[C@@H]3O[C@@H]3C3=C[C@@H](OC3=O)[C@@H]21 [Dihydromikanolide, dihydromikanolide]
- Inhibition of incorporation (%) [2]: 73 (n = 5; standard deviation σ = 7) %
- Remaining thymidine incorporation (dpm sample/dpm control) (HT29 cells; 25 μg/ml): 0.58
- Remaining thymidine incorporation (dpm sample/dpm control) (HT29 cells; 50 μg/ml): 0.29
- Remaining thymidine incorporation (dpm sample/dpm control) (HT29 cells; 100 μg/ml): 0.19
